Measurements reported in patent EP0095294A1, “Deoxyuridine compounds, methods for preparing them and their use in medicine” (priority 1982, dated 1983).
Structures can show the parent of a compound that is named as a salt. Where two headings read alike, the source gives them in different places.

Experiments:
Assay type in all cases: cell-based
[1] = tested on: Herpes simplex type 1 virus (HFEM strain); assay: Plaque reduction test in virus-infected Vero cells
Protocol: (§1) Vero (African Green Monkey Kidney) cells were grown to confluence in 24 well multidishes, each well being 1.6cm in diameter. The cells were infected with Herpes simplex type 1 virus (HFEM strain) and overlaid with 0.5ml of 0.9% agarose (w/v) in maintenance medium. Test compounds prepared in maintenance medium in concentrations ranging from 100 to 0.03pg/ml in half-log dilution steps, were added in 0.5ml volume. The virus infected cultures were then incubated at 37° for 4 days before fixing in 4% formaldehyde solution and staining with carbolfuchsin.

in vitro [2] = conditions: african green monkey, vero cells
Protocol: as §1

in vitro [3] = conditions: african green monkey; minimum concentration of test compound which caused cytotoxicity; Vero cells, 4 days at 37°; highest concentration tested 100; read-out: MTD
[4] = tested on: Vero (African Green Monkey Kidney) cells; assay: in vitro; conditions: minimum concentration of test compound which caused cytotoxicity; Vero cells, 4 days at 37°; highest concentration tested 100
Protocol: as §1

[5] = Human alphaherpesvirus 1, Vero, 96 h, read-out: PDD50, concentration causing 50% reduction in number of virus plaques, HSV-1 HFEM strain, 4 days at 37°
[6] = Human alphaherpesvirus 1, 96 h, concentration causing 50% reduction in number of virus plaques, HSV-1 HFEM strain, 4 days at 37°, molar units, read-out: PDD50 (the source's name)
[7] = Human alphaherpesvirus 1, 96 h, concentration causing 50% reduction in number of virus plaques, HSV-1 HFEM strain, 4 days at 37°, read-out: PDD50 (the source's name)
[8] = Human alphaherpesvirus 1, Vero, 96 h, read-out: PDD50, concentration causing 50% reduction in number of virus plaques, HSV-1 HFEM strain, 4 days at 37°, molar units

Row | SMILES | IC50 [1, 6] [nM] | IC50 [1, 7] [µg/mL] | MCC at 96 h (in vitro [2]) [µg/mL] | IC50 [1, 5] [µg/mL] | MCC at 96 h (in vitro [3]) [µg/mL] | IC50 [1, 8] [nM] | MTD [4] [µg/mL]
1 | CCOC(=O)OC[C@H]1O[C@@H](n2cc(/C=C/Br)c(=O)[nH]c2=O)C[C@@H]1OC(=O)CCC(=O)[O-].[Na+] | – | – | – | 6.3 | – | – | –
2 | COC(=O)O[C@H]1C[C@H](n2cc(/C=C/Br)c(=O)[nH]c2=O)O[C@@H]1CO [Example 2, 5-(E-2-Bromovinyl)-2'-deoxy-3'-0-methoxycarbonyluridine] | 1900 | 0.74 | > 100 | – | – | – | –
3 | COC(=O)OC[C@H]1O[C@@H](n2cc(/C=C/Br)c(=O)[nH]c2=O)C[C@@H]1O [Example 3, 5-(E-2-Bromovinyl)-2'-deoxy-5'-O-methoxycarbonyluridine] | 3800 | 1.5 | > 100 | – | – | – | –
4 | CCOC(=O)n1c(=O)c(/C=C/Br)cn([C@H]2C[C@H](O)[C@@H](CO)O2)c1=O [Example 7, 5-(E-2-Bromovinyl)-2'-deoxy-3-ethoxycarbonyluridine] | 12300 | 5 | – | – | > 100 | – | –
5 | CCOC(=O)OC[C@H]1O[C@@H](n2cc(/C=C/Br)c(=O)[nH]c2=O)C[C@@H]1OP(=O)([O-])[O-].[Na+].[Na+] [Example 12, 5-(E-2-Bromovinyl)-2'-deoxy-5'-O-ethoxycarbonyluridine 3'-Phosphate Disodium Salt] | – | – | – | 12 | – | 23000 | >100
6 | CCOC(=O)OC[C@H]1O[C@@H](n2cc(/C=C/Br)c(=O)[nH]c2=O)C[C@@H]1OP(=O)(O)O [Example 13, 5-(E-2-Bromovinyl)-2'-deoxy-5'-0-ethoxycarbonyluridine 3'-Phosphate Monosodium Salt] | 7500 | 3.8 | – | – | > 100 | – | –
7 | CCCCOC(=O)OC[C@H]1O[C@@H](n2cc(/C=C/Br)c(=O)[nH]c2=O)C[C@@H]1O [Example 15, 5-(E-2-Bromovinyl)-5'-0-n-butoxycarbonyl-2'-deoxyuridine] | 600 | 0.25 | > 100 | – | – | – | –
8 | CC(C)COC(=O)OC[C@H]1O[C@@H](n2cc(/C=C/Br)c(=O)[nH]c2=O)C[C@@H]1OC(=O)OCC(C)C [Example 16, 5-(E-2-Bromovinyl)-3',5'-bis-0-isobutoxycarbonyl-2'-deoxyuridine] | 800 | 0.44 | 100 | – | – | – | –
9 | CC(C)COC(=O)OC[C@H]1O[C@@H](n2cc(/C=C/Br)c(=O)[nH]c2=O)C[C@@H]1O [Example 17, 5-(E-2-Bromovinyl)-5'-O-isobutoxycarbonyl-2'-deoxyuridine] | 500 | 0.22 | > 100 | – | – | – | –
10 | CC(C)(C)OC(=O)OC[C@H]1O[C@@H](n2cc(/C=C/Br)c(=O)[nH]c2=O)C[C@@H]1O [Example 18, 5-(E-2-Bromovinyl)-5'-O-t-butoxycarbonyl-2'-deoxyuridine] | 700 | 0.28 | > 100 | – | – | – | –
11 | CC(C)(C)OC(=O)OC[C@H]1O[C@@H](n2cc(/C=C/Br)c(=O)[nH]c2=O)C[C@@H]1OC(=O)OC(C)(C)C [Example 19, 5-(E-2-Bromovinyl)-3',5'-bis-O-t-butoxycarbonyl-2^1-deoxyuridine] | 3800 | 2 | > 100 | – | – | – | –
12 | CC(C)(C)OC(=O)O[C@H]1C[C@H](n2cc(/C=C/Br)c(=O)[nH]c2=O)O[C@@H]1CO [Example 20, 5-(E-2-Bromovinyl)-3'-O-t-butoxycarbonyl-2^1-deoxyuridine] | 400 | 0.18 | > 100 | – | – | – | –
13 | O=C(OCc1ccccc1)OC[C@H]1O[C@@H](n2cc(/C=C/Br)c(=O)[nH]c2=O)C[C@@H]1O [Example 22, 5'-O-Benzyloxycycarbonyl-5-(E-2-bromovinyl)-2'-deoxyuridine] | 100 | 0.05 | > 100 | – | – | – | –
14 | O=C(OC[C@H]1O[C@@H](n2cc(/C=C/Br)c(=O)[nH]c2=O)C[C@@H]1O)Oc1ccccc1 [Example 23, 5-(E-2-Bromovinyl)-5'-0-phenoxycarbonyl-2'-deoxyuridine] | 400 | 0.18 | > 100 | – | – | – | –
15 | O=C(OC[C@H]1O[C@@H](n2cc(/C=C/Br)c(=O)[nH]c2=O)C[C@@H]1O)Oc1ccc([N+](=O)[O-])cc1 [Example 24, 5-(E-2-Bromovinyl)-2'-deoxy-5'-O-(p-nitrophenoxycarbonyl)uridine] | 1200 | 0.6 | 100 | – | – | – | –
16 | CC(C)OC(=O)OC[C@H]1O[C@@H](n2cc(/C=C/Br)c(=O)[nH]c2=O)C[C@@H]1O [Example 25, 5-(E-2-Bromovinyl)-2'-deoxy-5'-0-isopropoxycarbonyluridine] | 2100 | 0.88 | > 100 | – | – | – | –
17 | C=Cc1cn([C@H]2C[C@H](O)[C@@H](COC(=O)OCC)O2)c(=O)[nH]c1=O [Example 27, 2^1-Deoxy-5^1-O-ethoxycarbonyl-5-vinyluridine] | 4600 | 1.5 | > 100 | – | – | – | –
18 | CCOC(=O)OC[C@H]1O[C@@H](n2cc(/C=C/Br)c(=O)[nH]c2=O)C[C@@H]1OC(=O)CCC(=O)[O-].[Na+] [Sodium Salt] | – | – | – | – | > 100 | 12000 | –

The next lines start with results.

Row | IC50 [1, 6] [nM] | IC50 [1, 7] [µg/mL] | MCC at 96 h (in vitro [2]) [µg/mL] | SMILES | IC50 [1, 5] [µg/mL] | MCC at 96 h (in vitro [3]) [µg/mL] | IC50 [1, 8] [nM] | MTD [4] [µg/mL]
19 | 11800 | 5.3 | > 100 | COC(=O)OC[C@H]1O[C@@H](n2cc(/C=C/Br)c(=O)[nH]c2=O)C[C@@H]1OC(=O)OC [Example 1, 5-(E-2-Bromovinyl)-2'-deoxy-3',5'-bis-0-methoxycarbonyl-uridine] | – | – | – | –
20 | 2300 | 1.1 | > 100 | CCOC(=O)OC[C@H]1O[C@@H](n2cc(/C=C/Br)c(=O)[nH]c2=O)C[C@@H]1OC(=O)OCC [Example 4, 5-(E-2-Bromovinyl)-2'-deoxy-3',5'-bis-0-ethoxycarbonyluridine] | – | – | – | –
21 | 700 | 0.28 | > 100 | CCOC(=O)OC[C@H]1O[C@@H](n2cc(/C=C/Br)c(=O)[nH]c2=O)C[C@@H]1O [Example 5, 5-(E-2-Bromovinyl)-2'-deoxy-5'-0-ethoxycarbonyluridine] | – | – | – | –
22 | 1100 | 0.43 | > 100 | CCOC(=O)O[C@H]1C[C@H](n2cc(/C=C/Br)c(=O)[nH]c2=O)O[C@@H]1CO [Example 6, 5-(E-2-Bromovinyl)-2'-deoxy-3'-0-ethoxycarbonyluridine] | – | – | – | –
23 | 3000 | 1.7 | > 100 | CCCCC(=O)O[C@H]1C[C@H](n2cc(/C=C/Br)c(=O)n(C(=O)CCCC)c2=O)O[C@@H]1COC(=O)OCC [Example 8, 5-(E-2-Bromovinyl)-2'-deoxy-5'-0-ethoxycarbonyl-3,3'-0-bisvaleryluridine] | – | – | – | –
24 | 3000 | 1.5 | > 100 | CCCCC(=O)O[C@H]1C[C@H](n2cc(/C=C/Br)c(=O)[nH]c2=O)O[C@@H]1COC(=O)OCC [Example 9, 5-(E-2-Bromovinyl)-2'-deoxy-5'-O-ethoxyarbonyl-3'-O-valeryluridine] | – | – | – | –
25 | 6700 | 3.3 | > 100 | CCCCC(=O)n1c(=O)c(/C=C/Br)cn([C@H]2C[C@H](O)[C@@H](COC(=O)OCC)O2)c1=O [Example 10, 5-(E-2-Bromovinyl)-2'-deoxy-5'-0-ethoxycarbonyl-3-valeryl-uridine] | – | – | – | –
26 | 900 | 0.39 | > 100 | CCCOC(=O)OC[C@H]1O[C@@H](n2cc(/C=C/Br)c(=O)[nH]c2=O)C[C@@H]1O [Example 14, 5-(E-2-Bromovinyl)-2'-deoxy-5'-0-propoxycarbcnyluridine] | – | – | – | –
27 | 1700 | 0.72 | > 100 | C=CCOC(=O)OC[C@H]1O[C@@H](n2cc(/C=C/Br)c(=O)[nH]c2=O)C[C@@H]1O [Example 21, 5'-0-Allyloxycarbonyl-5-(E-2-bromovinyl)-2'-deoxyuridine] | – | – | – | –
28 | 1800 | 0.76 | > 100 | O=C(OCCO)OC[C@H]1O[C@@H](n2cc(/C=C/Br)c(=O)[nH]c2=O)C[C@@H]1O [Example 26, 5-(E-2-Bromovinyl)-2'-deoxy-5'-0-(2-hydroxyethox^ycarbonyl)-uridine] | – | – | – | –
